The record followed here is EPA's ToxValDB 9.5 (doi:10.2903/j.efsa.2014.3353).

For one series, the system named is Daphnia magna. The conditions noted are these: chronic/long-term; duration: 21 days; mobility.
A further series concerns Tagia sp. Conditions: acute; duration: 14 days; mortality.
The subject of a further series is Colinus virginianus. The conditions noted are these: for LD50: acute, oral, mortality.
In the next series the test system is Pimephales promelas. The conditions noted are these: chronic/long-term; duration: 28 days; growth.
The next series deals with Bibionidae. Conditions: chronic/long-term; duration: 28 days; development.
For another series, the system named is Cyprinodon variegatus. Conditions: acute; duration: 96 hours; mortality.
The subject of another series is Apis mellifera. The conditions noted are these: acute, duration: 48 hours, mortality.
For another series, the system named is Oryctolagus sp. The conditions noted are these: reproduction developmental; body weight.

In the case of `COc1cc(OC)nc(NC(=O)NS(=O)(=O)Nc2ccccc2C(=O)N(C)C)n1` [Orthosulfamuron], the NOEC was 10 mg/L in the series on Daphnia magna; 112 mg/kg-day with Colinus virginianus (reproduction developmental, duration: 21 weeks); 6.1 mg/L with Pimephales promelas; 66.9 mg/L in the series on Bibionidae. For the same molecule, the LC50 in the series with Tagia sp. was above 1000 mg/kg; with Cyprinodon variegatus, above 123 µg/mL; in the series with Apis mellifera (oral, unspecified), above 109 µg/piece. Moreover, the LD50 in the series with Colinus virginianus (duration: 5 days, diet) was above 936 mg/kg-day; with Colinus virginianus it was above 2000 mg/kg-day; with Rattus norvegicus (acute, oral, mortality), above 5000 mg/kg-day; with Apis mellifera (dermal) it was above 100 µg/piece. In addition, the NOAEL with Rattus norvegicus (chronic, duration: 2 years, other) was determined as 5 mg/kg-day; in the series with Rattus norvegicus (reproduction developmental, mobility) it was 70.8 mg/kg-day; in the series on Rattus norvegicus (reproduction developmental, other) it was 5 mg/kg-day; with Oryctolagus sp., 75 mg/kg-day. This molecule registered an LOAEL with Rattus norvegicus (subchronic, duration: 90 days, oral, immunology) of 19 mg/kg-day.

By NOAEL is commonly meant the highest tested level that showed no adverse finding. The term LOAEL denotes the lowest tested level that showed an adverse finding.
